Laboratory results from patent publication US20070009944A1, “Assay for nucleic acid ligase and nucleic acid nuclease” (University of East Anglia, priority 2005, published 2007).
Structures can show the parent of a compound that is named as a salt.

Biological target: T1, E. coli DNA ligase (LigA) (Escherichia coli, UniProt P15042)
T1 construct: His tag; made in house
Assay: In-well ligation of immobilised nicked DNA hairpins (fluorescence retention, micro-titre plate)
Type: biochemical
Conditions: 15 nM E. coli DNA ligase; ligates 60% of immobilized hairpins without inhibitor; FIG. 8; read-out: 50% inhibition of E. coli DNA ligase activity
Method: Ligation of immobilised nicked hairpins was performed in the streptavidin coated wells of a micro-titre plate (StreptaWell HighBind 96-well plate, opaque, white). After each of the following steps were performed, the entire solution in the well was removed and stored or discarded, as required. Hairpins were immobilised by placing 80 μL of a 5 μM hairpin solution into each well. The hairpin solution was removed after 5 minutes and the wells washed 5 times with 100 μL Wash Buffer (30 mM Tris-HCl, 4 mM MgCl2, pH 8.1), which allowed a stable fluorescence signal to be obtained from the immobilised hairpins. […] Fluorescence was recorded with a FL×800 Microplate Fluorescence Reader (Bio-Tek Instruments Inc). […]
In-well ligation of the nicked DNA hairpins by LigA was reflected by retention of fluorescence after exposure to DNA ligase and denaturation conditions, as shown in FIG. 6. […] The retention of fluorescence after exposure to DNA ligase and denaturation conditions is in contrast to the almost complete loss of fluorescence noted when the experiment was repeated without DNA ligase. […] The efficiency of in-well ligation was calculated in the following manner. The fluorescence retained in control experiments with the nicked hairpin was taken as a measure of background fluorescence intensity. […]

T1 sequence (P15042 whole entry): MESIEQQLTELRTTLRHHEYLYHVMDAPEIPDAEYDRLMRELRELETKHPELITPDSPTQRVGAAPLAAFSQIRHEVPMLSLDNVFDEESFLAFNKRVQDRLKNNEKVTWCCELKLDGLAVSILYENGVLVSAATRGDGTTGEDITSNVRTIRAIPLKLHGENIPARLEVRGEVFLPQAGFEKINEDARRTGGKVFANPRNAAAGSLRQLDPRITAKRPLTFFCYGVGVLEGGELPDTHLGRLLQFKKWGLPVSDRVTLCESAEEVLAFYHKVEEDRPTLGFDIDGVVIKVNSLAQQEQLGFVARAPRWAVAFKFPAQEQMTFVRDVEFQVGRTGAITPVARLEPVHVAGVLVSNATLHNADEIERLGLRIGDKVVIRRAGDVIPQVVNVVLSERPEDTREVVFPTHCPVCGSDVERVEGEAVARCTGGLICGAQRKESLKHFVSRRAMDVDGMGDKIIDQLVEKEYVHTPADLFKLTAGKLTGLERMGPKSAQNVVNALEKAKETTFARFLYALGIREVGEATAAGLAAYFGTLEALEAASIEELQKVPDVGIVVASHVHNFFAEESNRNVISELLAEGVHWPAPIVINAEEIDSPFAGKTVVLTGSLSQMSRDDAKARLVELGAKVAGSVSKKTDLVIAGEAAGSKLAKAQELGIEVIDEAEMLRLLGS

## CCN(CC)CCCC(C)Nc1c2ccc(Cl)cc2nc2ccc(OC)cc12 (stereo not shown) [quinacrine, quinacrine dihydrochloride]
  IC50: ~20 µM
